Tested on: broad panel of kinases representing most families
Assay: Broad panel of kinases
Type: biochemical

Structure (SMILES): CC(C)c1ccc2oc3nc(N)c(C(=O)O)cc3c(=O)c2c1 [amlexanox, 2-amino-7-isopropyl-5-oxo-5H-chromeno[2,3-b]pyridine-3-carboxylic acid]
- block of other kinases of a broad panel: did not block

From patent US10245255B2, “Compositions and methods for the treatment of obesity and related disorders” (THE REGENTS OF THE UNIVERSITY OF MICHIGAN, priority 2011, dated 2019)
